Reference: patent publication US11180474B2 (BRISTOL-MYERS SQUIBB COMPANY, priority 2016, dated 2021)

Tests used:
human TLR9 = target: T1, human TLR9 (Homo sapiens, UniProt Q9NR96); assay: TLR9 inhibition reporter assay (HEK-Blue cells, SEAP reporter, ODN2006 stimulation); assay type: cell-based; settings: HEK-Blue cells overexpressing human TLR9, ODN2006 5 nM
T1 construct: host or cells: HEK-Blue cells
T1 sequence (Q9NR96 26-1032): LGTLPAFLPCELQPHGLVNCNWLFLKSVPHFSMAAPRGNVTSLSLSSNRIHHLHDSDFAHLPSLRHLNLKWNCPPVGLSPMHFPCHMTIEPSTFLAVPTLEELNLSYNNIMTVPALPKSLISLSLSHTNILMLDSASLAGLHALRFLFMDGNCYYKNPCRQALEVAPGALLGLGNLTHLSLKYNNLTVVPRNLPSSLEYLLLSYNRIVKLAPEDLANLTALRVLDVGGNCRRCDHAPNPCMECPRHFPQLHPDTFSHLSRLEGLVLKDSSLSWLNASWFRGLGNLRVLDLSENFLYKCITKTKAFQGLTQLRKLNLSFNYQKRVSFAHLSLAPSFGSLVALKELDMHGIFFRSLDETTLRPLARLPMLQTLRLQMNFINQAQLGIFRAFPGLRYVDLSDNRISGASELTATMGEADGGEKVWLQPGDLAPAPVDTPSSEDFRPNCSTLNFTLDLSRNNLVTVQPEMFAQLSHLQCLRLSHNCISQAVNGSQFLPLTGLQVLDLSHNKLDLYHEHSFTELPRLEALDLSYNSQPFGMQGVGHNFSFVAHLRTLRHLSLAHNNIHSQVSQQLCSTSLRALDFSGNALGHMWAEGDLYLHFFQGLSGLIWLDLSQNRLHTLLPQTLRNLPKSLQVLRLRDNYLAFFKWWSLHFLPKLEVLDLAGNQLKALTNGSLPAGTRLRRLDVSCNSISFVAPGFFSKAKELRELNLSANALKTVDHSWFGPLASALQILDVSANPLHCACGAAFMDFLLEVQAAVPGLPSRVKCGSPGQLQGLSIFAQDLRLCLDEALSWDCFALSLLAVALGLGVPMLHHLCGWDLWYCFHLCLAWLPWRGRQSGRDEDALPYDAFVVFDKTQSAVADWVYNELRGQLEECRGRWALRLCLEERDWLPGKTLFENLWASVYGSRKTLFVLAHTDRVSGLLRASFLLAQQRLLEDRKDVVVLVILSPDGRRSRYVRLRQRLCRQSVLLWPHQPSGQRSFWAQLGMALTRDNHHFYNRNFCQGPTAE
Outline: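 Compound treatment: 30 min, RT, 0.05 nM–50 μM final. Agonist: TLR7 gardiquimod 7.5 μM; TLR8 R848 15.9 μM; TLR9 ODN2006 5 nM. Incubation 22 h, 37 °C, 5% CO2. Readout SEAP, HEK-Blue Detection.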

human TLR7 = target: T2, human TLR7 (Homo sapiens, UniProt Q9NYK1); assay: TLR7 inhibition reporter assay (HEK-Blue cells, SEAP reporter, gardiquimod stimulation); assay type: cell-based; settings: HEK-Blue cells overexpressing human TLR7, gardiquimod 7.5 μM
T2 construct: host or cells: HEK-Blue cells
T2 sequence (Q9NYK1 27-1049): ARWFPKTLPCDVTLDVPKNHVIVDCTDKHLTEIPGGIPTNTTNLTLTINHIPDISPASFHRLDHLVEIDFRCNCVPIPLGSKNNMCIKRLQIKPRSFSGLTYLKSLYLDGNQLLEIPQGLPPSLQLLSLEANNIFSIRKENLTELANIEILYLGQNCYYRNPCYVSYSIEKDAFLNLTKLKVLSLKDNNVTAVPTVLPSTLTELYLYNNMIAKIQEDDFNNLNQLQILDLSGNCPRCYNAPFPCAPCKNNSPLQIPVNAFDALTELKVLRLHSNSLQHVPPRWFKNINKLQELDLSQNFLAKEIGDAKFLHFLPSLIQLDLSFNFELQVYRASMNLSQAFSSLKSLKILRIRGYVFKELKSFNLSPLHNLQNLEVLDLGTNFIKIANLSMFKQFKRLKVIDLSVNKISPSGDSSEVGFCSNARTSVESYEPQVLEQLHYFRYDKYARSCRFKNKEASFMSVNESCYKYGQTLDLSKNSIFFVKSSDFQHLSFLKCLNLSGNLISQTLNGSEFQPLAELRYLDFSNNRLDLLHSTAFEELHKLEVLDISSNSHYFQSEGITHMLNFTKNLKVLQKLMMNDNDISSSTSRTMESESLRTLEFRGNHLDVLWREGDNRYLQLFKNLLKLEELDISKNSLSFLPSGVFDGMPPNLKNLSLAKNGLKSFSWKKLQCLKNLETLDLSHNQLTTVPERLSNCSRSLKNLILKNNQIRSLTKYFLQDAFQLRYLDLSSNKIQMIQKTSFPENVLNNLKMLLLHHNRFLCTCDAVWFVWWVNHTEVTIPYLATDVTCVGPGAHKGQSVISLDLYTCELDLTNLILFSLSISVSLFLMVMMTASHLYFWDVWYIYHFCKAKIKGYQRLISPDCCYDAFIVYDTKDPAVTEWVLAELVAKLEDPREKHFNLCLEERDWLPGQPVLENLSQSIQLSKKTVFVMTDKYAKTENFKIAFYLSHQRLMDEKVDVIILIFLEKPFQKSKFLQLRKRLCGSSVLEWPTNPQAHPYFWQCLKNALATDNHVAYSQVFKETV
Outline: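 22 h, 37° C, 5% CO2 incubation; compounds 0.05 nM-50 μM final; TLR7 cells 15000/well, TLR8 20,000/well. Readout: SEAP via HEK-Blue Detection medium. % inhibition = signal reduction versus agonist + DMSO wells, referenced to known inhibitor.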

Row | IC50 (human TLR9) [nM] | IC50 (human TLR7) [nM] | SMILES
1 | 267 | 19 | COc1ccc(-c2[nH]c3ccc(C4CCN(CC(=O)N5CCC(N6CCCCC6)CC5)CC4)cc3c2CC(F)(F)F)cc1OC [Example 359, 1-([1,4′-bipiperidin]-1′-yl)-2-(4-(2-(3,4-dimethoxyphenyl)-3-(2,2,2-trifluoroethyl)-1H-indol-5-yl)piperidin-1-yl)ethan-1-one]
2 | 392 | 16 | COc1ccc(-c2[nH]c3ccc(C4CCN(CC(=O)NCCC5CCCN5C)CC4)cc3c2CC(F)(F)F)cc1OC (stereo not shown) [Example 360, 2-(4-(2-(3,4-dimethoxyphenyl)-3-(2,2,2-trifluoroethyl)-1H-indol-5-yl)piperidin-1-yl)-N-(2-(1-methylpyrrolidin-2-yl)ethyl) acetamide]
3 | 2420 | 100 | COc1ccc(-c2[nH]c3ccc(C4CCN(CC(=O)N5CCN(C(C)=O)CC5)CC4)cc3c2CC(F)(F)F)cc1OC [Example 361, 1-(4-acetylpiperazin-1-yl)-2-(4-(2-(3,4-dimethoxyphenyl)-3-(2,2,2-trifluoroethyl)-1H-indol-5-yl)piperidin-1-yl)ethan-1-one]
4 | 1150 | 65 | COc1ccc(-c2[nH]c3ccc(C4CCN(CC(=O)N5CCN(C(C)C)CC5)CC4)cc3c2CC(F)(F)F)cc1OC [Example 362, 2-(4-(2-(3,4-dimethoxyphenyl)-3-(2,2,2-trifluoroethyl)-1H-indol-5-yl)piperidin-1-yl)-1-(4-isopropylpiperazin-1-yl)ethan-1-one]
5 | 268 | 8 | COc1ccc(-c2[nH]c3ccc(C4CCN(CC(=O)N5CCC(N6CCN(C)CC6)CC5)CC4)cc3c2CC(F)(F)F)cc1OC [Example 363, 2-(4-(2-(3,4-dimethoxyphenyl)-3-(2,2,2-trifluoroethyl)-1H-indol-5-yl)piperidin-1-yl)-1-(4-(4-methylpiperazin-1-yl)piperidin-1-yl) ethan-1-one]
6 | 563 | 23 | COc1ccc(-c2[nH]c3ccc(C4CCN(CC(=O)N5CCC(N(C)C)CC5)CC4)cc3c2CC(F)(F)F)cc1OC [Example 364, 2-(4-(2-(3,4-dimethoxyphenyl)-3-(2,2,2-trifluoroethyl)-1H-indol-5-yl)piperidin-1-yl)-1-(4-(dimethylamino)piperidin-1-yl)ethan-1-one]
7 | 190 | 14 | COc1ccc(-c2[nH]c3ccc(C4CCN(CC(=O)N(C)CCCN(C)C)CC4)cc3c2CC(F)(F)F)cc1OC [Example 365, 2-(4-(2-(3,4-dimethoxyphenyl)-3-(2,2,2-trifluoroethyl)-1H-indol-5-yl)piperidin-1-yl)-N-(3-(dimethylamino)propyl)-N-methylacetamide]
8 | 141 | 4 | COc1ccc(-c2[nH]c3ccc(C4CCN(CC(=O)N5CCN(c6ccncc6)CC5)CC4)cc3c2CC(F)(F)F)cc1OC [Example 366, 2-(4-(2-(3,4-dimethoxyphenyl)-3-(2,2,2-trifluoroethyl)-1H-indol-5-yl)piperidin-1-yl)-1-(4-(pyridin-4-yl)piperazin-1-yl) ethan-1-one]
9 | 441 | 23 | COc1ccc(-c2[nH]c3ccc(C4CCN(CC(=O)N(C)CCN(C)C)CC4)cc3c2CC(F)(F)F)cc1OC [Example 367, 2-(4-(2-(3,4-dimethoxyphenyl)-3-(2,2,2-trifluoroethyl)-1H-indol-5-yl)piperidin-1-yl)-N-(2-(dimethylamino)ethyl)-N-methylacetamide]
10 | 1330 | 159 | COc1ccc(-c2[nH]c3ccc(C4CCN(CC(=O)N5CCN(c6ncccn6)CC5)CC4)cc3c2CC(F)(F)F)cc1OC [Example 368, 2-(4-(2-(3,4-dimethoxyphenyl)-3-(2,2,2-trifluoroethyl)-1H-indol-5-yl)piperidin-1-yl)-1-(4-(pyrimidin-2-yl)piperazin-1-yl)ethan-1-one]
11 | 1950 | 101 | COc1ccc(-c2[nH]c3ccc(C4CCN(CC(=O)N5CCC(C(N)=O)CC5)CC4)cc3c2CC(F)(F)F)cc1OC [Example 369, 1-(2-(4-(2-(3,4-dimethoxyphenyl)-3-(2,2,2-trifluoroethyl)-1H-indol-5-yl)piperidin-1-yl)acetyl)piperidine-4-carboxamide]
12 | 399 | 27 | COc1ccc(-c2[nH]c3ccc(C4CCN(CC(=O)N(C)C5CCN(C)C5)CC4)cc3c2CC(F)(F)F)cc1OC (stereo not shown) [Example 370, 2-(4-(2-(3,4-dimethoxyphenyl)-3-(2,2,2-trifluoroethyl)-1H-indol-5-yl)piperidin-1-yl)-N-methyl-N-(1-methylpyrrolidin-3-yl)acetamide]
13 | 2460 | 79 | COc1ccc(-c2[nH]c3ccc(C4CCN(CC(=O)N5CCC[C@@H]5CO)CC4)cc3c2CC(F)(F)F)cc1OC [Example 371, (R)-2-(4-(2-(3,4-dimethoxyphenyl)-3-(2,2,2-trifluoroethyl)-1H-indol-5-yl)piperidin-1-yl)-1-(2-(hydroxymethyl)pyrrolidin-1-yl)ethan-1-one]
14 | 335 | 13 | CCN(CCN(C)C)C(=O)CN1CCC(c2ccc3[nH]c(-c4ccc(OC)c(OC)c4)c(CC(F)(F)F)c3c2)CC1 [Example 372, 2-(4-(2-(3,4-dimethoxyphenyl)-3-(2,2,2-trifluoroethyl)-1H-indol-5-yl)piperidin-1-yl)-N-(2-(dimethylamino)ethyl)-N-ethylacetamide]
15 | 370 | 16 | COc1ccc(-c2[nH]c3ccc(C4CCN(CC(=O)N5CC[C@@H](N(C)C)C5)CC4)cc3c2CC(F)(F)F)cc1OC [Example 373, (R)-2-(4-(2-(3,4-dimethoxyphenyl)-3-(2,2,2-trifluoroethyl)-1H-indol-5-yl)piperidin-1-yl)-1-(3-(dimethylamino)pyrrolidin-1-yl)ethan-1-one]
16 | 252 | 9 | COc1ccc(-c2[nH]c3ccc(C4CCN(CC(=O)N5CC[C@H](N(C)C)C5)CC4)cc3c2CC(F)(F)F)cc1OC [Example 374, (S)-2-(4-(2-(3,4-dimethoxyphenyl)-3-(2,2,2-trifluoroethyl)-1H-indol-5-yl)piperidin-1-yl)-1-(3-(dimethylamino)pyrrolidin-1-yl) ethan-1-one]
17 | 701 | 29 | COc1ccc(-c2[nH]c3ccc(C4CCN(CC(=O)NCCN5CCCC5)CC4)cc3c2CC(F)(F)F)cc1OC [Example 375, 2-(4-(2-(3,4-dimethoxyphenyl)-3-(2,2,2-trifluoroethyl)-1H-indol-5-yl)piperidin-1-yl)-N-(2-(pyrrolidin-1-yl)ethyl)acetamide]
